Literature values, collected in US20040192658A1, “Compositions and methods of using collajolie” (Angiotech International AG, priority 2002, published 2004).

T1: interstitial collagenase (Homo sapiens, UniProt P03956)
T1 sequence (P03956 100-469): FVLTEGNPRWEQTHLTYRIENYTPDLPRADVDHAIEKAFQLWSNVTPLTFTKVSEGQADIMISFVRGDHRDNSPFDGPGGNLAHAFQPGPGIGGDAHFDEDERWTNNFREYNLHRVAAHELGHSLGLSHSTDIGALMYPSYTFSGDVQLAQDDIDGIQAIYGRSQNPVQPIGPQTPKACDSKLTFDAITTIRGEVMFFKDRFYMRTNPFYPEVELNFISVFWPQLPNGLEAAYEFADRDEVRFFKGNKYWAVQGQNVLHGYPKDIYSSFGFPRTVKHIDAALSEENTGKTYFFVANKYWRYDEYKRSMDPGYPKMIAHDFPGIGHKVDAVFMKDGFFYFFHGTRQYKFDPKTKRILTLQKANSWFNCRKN

T2: collagenase 1 (Homo sapiens, UniProt P03956)
T2 sequence (P03956 100-469): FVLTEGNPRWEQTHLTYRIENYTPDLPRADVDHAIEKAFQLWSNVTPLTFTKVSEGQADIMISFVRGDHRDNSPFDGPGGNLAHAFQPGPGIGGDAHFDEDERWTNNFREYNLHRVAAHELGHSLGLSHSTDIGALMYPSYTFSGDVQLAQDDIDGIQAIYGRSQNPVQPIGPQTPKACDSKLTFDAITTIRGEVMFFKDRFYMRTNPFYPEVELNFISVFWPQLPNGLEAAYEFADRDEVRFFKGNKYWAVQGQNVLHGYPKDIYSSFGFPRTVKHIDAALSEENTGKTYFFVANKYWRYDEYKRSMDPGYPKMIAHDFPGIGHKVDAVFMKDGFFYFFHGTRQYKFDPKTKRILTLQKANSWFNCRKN

T3: gelatinase A (Homo sapiens, UniProt P08253)
T3 sequence (P08253 110-660): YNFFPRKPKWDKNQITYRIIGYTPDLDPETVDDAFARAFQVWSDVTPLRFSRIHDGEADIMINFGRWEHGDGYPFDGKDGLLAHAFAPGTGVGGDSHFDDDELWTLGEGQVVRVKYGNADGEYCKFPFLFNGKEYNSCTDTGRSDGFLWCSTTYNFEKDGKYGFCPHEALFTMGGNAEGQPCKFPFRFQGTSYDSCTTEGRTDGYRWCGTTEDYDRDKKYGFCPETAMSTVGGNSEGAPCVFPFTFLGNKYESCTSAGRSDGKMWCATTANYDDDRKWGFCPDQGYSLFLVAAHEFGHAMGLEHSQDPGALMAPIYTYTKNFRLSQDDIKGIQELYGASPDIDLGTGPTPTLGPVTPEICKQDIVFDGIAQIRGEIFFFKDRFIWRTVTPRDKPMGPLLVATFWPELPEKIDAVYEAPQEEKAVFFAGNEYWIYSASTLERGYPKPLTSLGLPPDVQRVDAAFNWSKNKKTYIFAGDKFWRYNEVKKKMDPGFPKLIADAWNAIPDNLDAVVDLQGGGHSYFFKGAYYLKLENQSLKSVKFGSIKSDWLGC


Columns and labels:
interstitial collagenase = biological target: T1, interstitial collagenase; conditions: compared with TIMP-2
gelatinase B = gelatinase B (Homo sapiens, UniProt P14780)
gelatinase B, sequence (P14780 94-707, species assumed): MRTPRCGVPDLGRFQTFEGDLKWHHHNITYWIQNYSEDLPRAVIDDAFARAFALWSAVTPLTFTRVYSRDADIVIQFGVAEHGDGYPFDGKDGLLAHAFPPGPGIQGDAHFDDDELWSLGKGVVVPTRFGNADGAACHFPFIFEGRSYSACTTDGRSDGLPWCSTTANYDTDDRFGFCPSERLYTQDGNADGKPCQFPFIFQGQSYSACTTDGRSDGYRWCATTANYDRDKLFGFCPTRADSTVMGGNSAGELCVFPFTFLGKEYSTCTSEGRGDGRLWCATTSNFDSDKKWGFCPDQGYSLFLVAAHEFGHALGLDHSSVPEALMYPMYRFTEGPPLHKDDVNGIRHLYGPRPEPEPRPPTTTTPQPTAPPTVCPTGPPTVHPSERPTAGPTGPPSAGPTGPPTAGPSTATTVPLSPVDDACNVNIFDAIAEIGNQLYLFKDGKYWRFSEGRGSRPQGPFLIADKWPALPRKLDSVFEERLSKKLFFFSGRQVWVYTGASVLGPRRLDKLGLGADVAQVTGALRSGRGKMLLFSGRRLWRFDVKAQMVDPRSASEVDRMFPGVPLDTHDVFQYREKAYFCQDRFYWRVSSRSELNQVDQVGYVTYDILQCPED

collagenase 1 = biological target: T2, collagenase 1
gelatinase A = biological target: T3, gelatinase A

Molecule	well tolerated daily dosage	established (well) tolerated single dose	other results
CN(C)[C@@H]1C(O)=C(C(N)=O)C(=O)[C@@]2(O)C(O)=C3C(=O)c4c(O)cccc4[C@@](C)(O)C3C[C@@H]12 (stereo in doubt) [tetracycline, 4-(dimethylamino)-1,4,4a,5,5a,6,11,12a-octahydro-3,6,10,12,12a-pentahydroxy-6-methyl-1,11-dioxo-2-naphthacenecarboxamide]	1000 mg	1000 mg	–
TIMP-1: 30 kD Tissue Inhibitor of Matrix Metalloproteinase, the most commonly expressed TIMP molecule	–	–	inhibition of interstitial collagenase (interstitial collagenase): better inhibitor of interstitial collagenase than TIMP-2
CN(C)c1ccc(O)c2c1C[C@H]1C[C@H]3[C@H](N(C)C)C(O)=C(C(N)=O)C(=O)[C@@]3(O)C(O)=C1C2=O [minocycline, 7-dimethylamino-6-dimethyl-6-deoxytetracycline]	200 mg	200 mg	–
CNC(=O)[C@@H](NC(=O)[C@H](CC(C)C)[C@H](O)C(=O)NO)C(C)(C)C	–	–	established well tolerated single daily dose (single daily dose): 50 mg
C[C@H]1c2cccc(O)c2C(=O)C2=C(O)[C@]3(O)C(=O)C(C(N)=O)=C(O)[C@@H](N(C)C)[C@@H]3[C@@H](O)[C@@H]21 [doxycycline, α-6-deoxy-5-hydroxy-tetracycline]	100 mg	200 mg	–
CN1C(=O)N(C[C@H](C(=O)NO)[C@@H](CC2CCCC2)C(=O)N2CCCCC2)C(=O)C1(C)C [TROCADE]	–	150 mg	–
TIMP-3: 21 kD Tissue Inhibitor of Matrix Metalloproteinase (protein, UniProt P35625 24-211, looked up) Metalloproteinase inhibitor 3: CTCSPSHPQDAFCNSDIVIRAKVVGKKLVKEGPFGTLVYTIKQMKMYRGFTKMPHVQYIHTEASESLCGLKLEVNKYQYLLTGRVYDGKMYTGLCNFVERWDQLTLSQRKGLNYRYHLGCNCKIKSCYYLPCFVTSKNECLWTDMLSNFGYPGYQSKHYACIRQKGGYCSWYRGWAPPDKSIINATDP	–	–	inhibition of gelatinase B (gelatinase B): inhibits; inhibition of stromelysin (stromelysin): inhibits; inhibition of collagenase 1 (collagenase 1): inhibits; inhibition of gelatinase A (gelatinase A): inhibits
